We go through five compounds from ChEMBL document CHEMBL1150664, “New bioactive peroxides from marine sponges of the family plakiniidae” (2002).

≈ marks a conversion by molar mass, not a printed value.

The first assay concerns Aspergillus fumigatus. Briefly: Antimicrobial activity against Aspergillus fumigatus by standard microdilution broth method. It is filed as functional. On the technique in general: Broth dilution looks for growth in wells or tubes with falling amounts of substance.
Take `CC/C=C/C(CC)C/C=C/[C@@]1(CC)C[C@H](CC)[C@@H](CC(=O)O)OO1` (stereo partly specified): the IC90 (in general, the concentration needed for an effect of 90%) came out at 5.6 µg/mL (≈ 16.5 µM).
The same measure, in the same setting: the figure for `C[C@@H]1[C@H](O)[C@@H](C)/C=C/C=C/C=C/C=C/C=C/C=C/C=C/[C@H](O[C@@H]2O[C@H](C)[C@@H](O)[C@H](N)[C@@H]2O)C[C@@H]2O[C@](O)(C[C@@H](O)C[C@@H](O)[C@H](O)CC[C@@H](O)C[C@@H](O)CC(=O)O[C@H]1C)C[C@H](O)[C@H]2C(=O)O` [AMPHOTERICIN B] is 1 µg/mL (≈ 1.08 µM).

The next assay relates to Candida albicans. Briefly: Antimicrobial activity against Candida albicans by standard microdilution broth method. The format is functional.
In the case of `CC/C=C/C(CC)C/C=C/[C@@]1(CC)C[C@H](CC)[C@@H](CC(=O)O)OO1` (stereo partly specified), the minimal inhibitory concentration (MIC) – broadly, the smallest concentration in the dilution series that meets the test's criterion for growth inhibition – is 5 µg/mL (≈ 14.8 µM).
Still for that read-out and setting: the figure for `CC(CCCCCCC/C=C/C=C/c1ccccc1)C[C@]1(C)C[C@](C)(CC(=O)O)OO1` (relative stereo) is 1.6 µg/mL (≈ 3.73 µM); for `Nc1nc(=O)[nH]cc1F` [FLUCYTOSINE] it is 1.62 µg/mL (≈ 12.5 µM).
Same read-out and setting: the figure for `CC(CCCCCCC/C=C/C=C/c1ccccc1)C[C@]1(C)C[C@@](C)(CC(=O)O)OO1` (relative stereo) is 1.6 µg/mL (≈ 3.73 µM).
